Experimental data from ChEMBL document CHEMBL4627328, “Synthesis and in vitro evaluation of antimycobacterial and cytotoxic activity of new α,β-unsaturated amide, oxazoline and oxazole derivatives from l-serine” (Bioorg Med Chem Lett, 2020).
≈ marks a conversion by molar mass, not a printed value.

The compounds below were run on Mycobacterium tuberculosis (assay: Antimycobacterial activity against multidrug resistant Mycobacterium tuberculosis G122 incubated for 5 days by alamar blue based colorimetric assay). Settings: G122, 120 h.
Assay type: functional
In the case of COC(=O)[C@@H]1COC(/C=C/c2ccc(F)cc2)=N1, the MIC is reported as 100 µM (≈ 25 µg/mL). With COC(=O)c1coc(/C=C/c2ccc(C)cc2)n1 the MIC was 25.7 µM (≈ 6.25 µg/mL). With COC(=O)[C@H](CO)NC(=O)/C=C/c1ccc(C)cc1 the MIC was > 380 µM. In the case of COC(=O)c1coc(/C=C/c2ccc(F)cc2)n1, the MIC is reported as 50.5 µM (≈ 12.5 µg/mL). With COC(=O)[C@H](CO)NC(=O)/C=C/c1ccc(F)cc1 the MIC was > 374 µM. With COC(=O)[C@@H]1COC(/C=C/c2ccc(OC)cc2)=N1 the MIC was 47.8 µM (≈ 12.5 µg/mL). For COC(=O)[C@H](COC(=O)/C=C/c1ccccc1)NC(=O)/C=C/c1ccccc1, the MIC was > 264 µM. COC(=O)[C@H](CO)NC(=O)/C=C/c1ccccc1 was tested, and the MIC was > 401 µM. COC(=O)[C@@H]1COC(/C=C/c2ccc(C)cc2)=N1 showed an MIC of 50.9 µM (≈ 12.5 µg/mL). O=C(/C=C/c1ccc(F)cc1)O/C(=N/C1CCCCC1)NC1CCCCC1 was tested, and the MIC was > 268 µM. With COC(=O)[C@H](CO)NC(=O)/C=C/c1ccc(OC)cc1 the MIC was > 358 µM. COC(=O)[C@@H]1COC(/C=C/c2ccccc2)=N1 gave an MIC of 54.1 µM (≈ 12.5 µg/mL). In the case of O=C(/C=C/c1ccccc1)O/C(=N/C1CCCCC1)NC1CCCCC1, the MIC is reported as > 282 µM. Cc1ccc(/C=C/C(=O)O/C(=N/C2CCCCC2)NC2CCCCC2)cc1 was tested, and the MIC was > 271 µM. In the case of COC(=O)[C@H](COC(=O)/C=C/c1ccc(F)cc1)NC(=O)/C=C/c1ccc(F)cc1, the MIC is reported as > 241 µM. For COC(=O)[C@H](COC(=O)/C=C/c1ccc(OC)cc1)NC(=O)/C=C/c1ccc(OC)cc1, the MIC was > 228 µM. Work on COC(=O)c1coc(/C=C/c2ccc(OC)cc2)n1 yielded an MIC of 48.2 µM (≈ 12.5 µg/mL). In the case of COC(=O)[C@H](COC(=O)/C=C/c1ccc(C)cc1)NC(=O)/C=C/c1ccc(C)cc1, the MIC is reported as > 245 µM. COC(=O)c1coc(/C=C/c2ccccc2)n1 gave an MIC of 54.5 µM (≈ 12.5 µg/mL). With CC[C@@H](CO)NCCN[C@@H](CC)CO [ETHAMBUTOL] the MIC was > 30.5 µM. In the case of C[C@H]1COc2c(N3CCN(C)CC3)c(F)cc3c(=O)c(C(=O)O)cn1c23 [LEVOFLOXACIN], the MIC is reported as 0.54 µM (≈ 0.195 µg/mL). CO[C@H]1/C=C/O[C@@]2(C)Oc3c(C)c(O)c4c(O)c(c(/C=N/N5CCN(C)CC5)c(O)c4c3C2=O)NC(=O)/C(C)=C\C=C\[C@H](C)[C@H](O)[C@@H](C)[C@@H](O)[C@@H](C)[C@H](OC(C)=O)[C@@H]1C [RIFAMPIN] was tested, and the MIC was 0.23 µM (≈ 0.189 µg/mL).
